Laboratory results as given in patent US4314998A, “6-Deoxyglucosamine-peptide derivatives, their production and use” (Takeda Chemical Industries, Ltd., priority 1979, dated 1982).

Tested on: Meth-A fibrosarcoma cells
Assay: Inhibition of growth of Meth-A fibrosarcoma in mice (compound mixed with tumor cells)
Assay type: in vivo
Settings: 100 μg mixed with 5×10^4 Meth-A fibrosarcoma cells, intracutaneous, female Balb/C mice
Experimental: For example, 100 μg of the compounds obtained in accordance with the present invention suspended in a phosphate-buffered saline and mixed with 5×10^4 Meth-A fibrosarcoma cells, followed by intracutaneous administration to female Balb/C mice. The effects to inhibit the growth of Meth-A were examined at 1 week intervals until the 4th week after the administration.

Measured: The number of tumor-free mice/the number of mice tested

2-(2-acetamido-2,6-dideoxy-6-mycoloylamino-D-glucopyranos-3-O-yl)-D-propionyl-L-alanyl-D-isoglutamine [Example 7]
10/10: week 2 | week 3 | week 4

2-(2-acetamido-2,6-dideoxy-6-mycoloylamino-D-glucopyranos-3-O-yl)-D-propionyl-L-valyl-D-isoglutamine [Example 9]
10/10: week 1 | week 2 | week 3 | week 4
